Values after ≈ are worked out from the molar mass of the structure shown. Read-outs that look alike come from different tables or passages of the source.
Columns and labels:
[1] = target: T1, human recombinant COX2 (hCOX2) (UniProt P35354); experiment: LCMS-based COX2 enzymatic inhibition assay (PGE2 quantification); assay type: biochemical; set-up: COX2 2 minutes pge2/pge2d4 area ratio Avg; other: 2 minutes; readout pge2/pge2d4 area ratio; average; COX2 2 minutes pge2/pge2d4 area ratio Avg; LLE; average LLE; COX2 2 minutes pge2 area (counts) Avg; readout pge2 area (counts); other: 2 min; "ovine COX2 (oCOX2), human recombinant COX2 (hCOX2)"; details: for COX2 2 minutes pge2/pge2d4 area ratio Avg. LLE / COX2 2 minutes pge2 area (counts) Avg. LLE / COX2 10 minutes pge2 area (counts) Avg. LLE: average LLE; for IC50: average
T1 sequence (P35354 1-604): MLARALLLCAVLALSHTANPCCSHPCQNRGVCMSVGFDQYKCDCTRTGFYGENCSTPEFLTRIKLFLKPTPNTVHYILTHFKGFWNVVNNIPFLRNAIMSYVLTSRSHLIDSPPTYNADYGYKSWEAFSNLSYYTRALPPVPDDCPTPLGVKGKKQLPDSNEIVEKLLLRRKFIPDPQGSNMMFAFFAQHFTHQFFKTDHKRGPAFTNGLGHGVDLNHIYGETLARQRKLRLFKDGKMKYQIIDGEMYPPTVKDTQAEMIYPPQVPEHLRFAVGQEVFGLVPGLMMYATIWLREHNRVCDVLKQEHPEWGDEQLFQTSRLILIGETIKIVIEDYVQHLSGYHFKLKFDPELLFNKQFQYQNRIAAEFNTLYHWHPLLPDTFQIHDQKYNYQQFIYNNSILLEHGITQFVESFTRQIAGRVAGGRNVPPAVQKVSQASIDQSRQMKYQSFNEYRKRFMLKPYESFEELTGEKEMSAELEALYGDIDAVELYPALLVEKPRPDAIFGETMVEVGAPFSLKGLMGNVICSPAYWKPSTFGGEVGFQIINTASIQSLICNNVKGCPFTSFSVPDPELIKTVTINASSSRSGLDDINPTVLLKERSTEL
Method in brief: (§1)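 Ovine COX-1 (0.1 μg) or human recombinant COX2 (0.2 μg) in 100 mM Tris.HCl pH 8.0 with hematin and epinephrine, preincubated with inhibitor 10 min at 37 °C. Reaction with 5 μM arachidonic acid stopped after 2 min with HCl; PGE2 quantified by LC-MS-MS. IC50 from 12 concentrations in triplicate.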

[2] = mouse plasma protein binding (PPB) assay; assay type: in vitro ADME; details: average, read-out: Mouse Plasma Protein Binding % Bound Avg (converted)
Procedure: (§2) We have adapted a previously reported cyclooxygenase enzymatic assay utilizing LCMS quantification of PGE2 as the product of COX-1 and COX2 catalyzed conversion of arachidonic acid to evaluate the binding properties of newly synthesized ligands [Cao, 2011]. These optimized and miniaturized (384-well plates) LCMS-based COX-1 and COX2 enzymatic assays enabled us to quickly evaluate newly synthesized ligands for COX2 binding affinity and selectivity vs COX-1. Using a shorter ligand-enzyme incubation time in the LCMS assay (2 minutes vs 10 minutes) also permitted us to prioritize ligands with faster binding kinetics. Considering the relatively slow on-rate kinetics of known coxibs, due to their 3-step binding mechanism [Marnett, 2009], we believe that optimizing this critical parameter will be key to the successful development of a COX2 PET tracer. Using these enzymatic assays, we have evaluated>200 newly synthesized ligands against COX2 and >20 ligands against COX-1. Another critical property necessary for a good PET radiotracer is to have low non-specific binding (NSB) to increase the free fraction and maximize the signal to noise ratio. This property can be evaluated using in-vitro protein binding assays, and we have now evaluated>50 newly synthesized ligands in mouse, rat and human plasma protein binding (PPB) assays as well as >15 ligands in a mouse brain protein binding (BPB) assay.

[3] = Mouse Plasma Protein Stability (% Remaining); assay type: in vitro ADME; details: average
ovine COX-1 (oCOX-1) = target: T2, ovine COX-1 (oCOX-1) (Ovis aries, UniProt P05979); experiment: LCMS-based COX-1 enzymatic inhibition assay (PGE2 quantification); assay type: biochemical
T2 construct: purchased Cayman Chemicals (Ann Arbor, Mich.)
T2 sequence (P05979 25-600): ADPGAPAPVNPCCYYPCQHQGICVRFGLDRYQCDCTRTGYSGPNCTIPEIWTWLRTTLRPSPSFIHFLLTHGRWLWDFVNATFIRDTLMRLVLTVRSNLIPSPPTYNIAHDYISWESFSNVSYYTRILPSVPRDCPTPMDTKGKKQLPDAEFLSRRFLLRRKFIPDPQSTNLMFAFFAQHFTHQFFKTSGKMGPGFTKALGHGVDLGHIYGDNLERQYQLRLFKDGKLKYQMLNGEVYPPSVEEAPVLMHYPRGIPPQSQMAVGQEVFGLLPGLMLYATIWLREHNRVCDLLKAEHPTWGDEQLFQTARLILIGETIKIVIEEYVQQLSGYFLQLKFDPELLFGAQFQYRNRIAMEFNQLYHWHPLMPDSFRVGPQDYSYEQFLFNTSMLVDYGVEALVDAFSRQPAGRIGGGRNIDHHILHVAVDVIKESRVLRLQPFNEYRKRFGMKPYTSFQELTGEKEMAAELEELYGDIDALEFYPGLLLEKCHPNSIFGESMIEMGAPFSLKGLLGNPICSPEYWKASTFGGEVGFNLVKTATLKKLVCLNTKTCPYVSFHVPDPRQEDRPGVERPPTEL
Method in brief: as §1

[4] = Rat Plasma Protein Stability (% Remaining); assay type: in vitro ADME; details: average
PBS Solubility (no DMSO) = assay type: physicochemical; details: aqueous buffer, thermodynamic from solid, average
[5] = rat plasma protein binding (PPB) assay; assay type: in vitro ADME; details: average, read-out: Rat Plasma Protein Binding % Bound Avg (converted)
Procedure: as §2

[6] = Human Microsome Stability; assay type: in vitro ADME; details: human microsomes
[7] = 2 minutes, readout pge2/pge2d4 area ratio
[8] = 2 minutes, readout pge2/pge2d4 area ratio, read-out: COX2 2 minutes pge2/pge2d4 area ratio Avg. IC50
[9] = 2 minutes, readout pge2 area (counts)
[10] = 2 minutes, readout pge2 area (counts), read-out: COX2 2 minutes pge2 area (counts) Avg. IC50
[11] = 10 minutes, readout pge2/pge2d4 area ratio, average LLE
[12] = 10 minutes, readout pge2/pge2d4 area ratio, average, read-out: COX1 10 minutes pge2/pge2d4 area ratio Avg. IC50
[13] = 10 minutes, readout pge2 area (counts), average LLE
[14] = 10 minutes, readout pge2 area (counts), average, read-out: COX1 10 minutes pge2 area (counts) Avg. IC50
[15] = 10 minutes, readout pge2 area (counts)
[16] = 10 minutes, readout pge2 area (counts), read-out: COX2 10 minutes pge2 area (counts) Avg. IC50
[17] = 10 minutes, pge2/pge2d4 area ratio, head of this section not shown, inferred
[18] = 10 minutes, pge2 area (counts), head of this section not shown, inferred
[19] = 10 minutes, pge2 area (counts), head of this section not shown, inferred, read-out: COX1 10 minutes pge2 area (counts) Avg. IC50

Compound | COX2 2 minutes pge2/pge2d4 area ratio Avg. LLE [1, 7] | IC50 [1, 8] | COX2 2 minutes pge2 area (counts) Avg. LLE [1, 9] | IC50 [1, 10] | fraction unbound [2] | Mouse Plasma Protein Stability % Remaining Avg [3] | IC50 (ovine COX-1 (oCOX-1); [12]) | IC50 (ovine COX-1 (oCOX-1); [14]) | solubility (PBS Solubility (no DMSO)) | COX2 10 minutes pge2 area (counts) Avg. LLE [1, 15] | IC50 [1, 16] | COX1 10 minutes pge2/pge2d4 area ratio Avg. LLE (ovine COX-1 (oCOX-1); [17]) | COX1 10 minutes pge2 area (counts) Avg. LLE (ovine COX-1 (oCOX-1); [18]) | IC50 (ovine COX-1 (oCOX-1); [19]) | COX1 10 minutes pge2/pge2d4 area ratio Avg. LLE (ovine COX-1 (oCOX-1); [11]) | COX1 10 minutes pge2 area (counts) Avg. LLE (ovine COX-1 (oCOX-1); [13]) | Rat Plasma Protein Stability % Remaining Avg [4] | fraction unbound [5] | Human Microsome Stability % Remaining Avg [6] | IC50 (ovine COX-1 (oCOX-1))
C[C@H](Oc1cncc(-c2ccc(S(C)(=O)=O)cc2)n1)c1cccs1 (single isomer, unassigned) [Compound 53] | 4.852 | 25 nM | 4.799 | 27.6 nM | 0.001 | 36.7% | 8610 nM | 11700 nM | – | – | – | – | – | – | 2.125 | 2.0112 | – | – | – | –
COc1ncc(OCc2cccs2)nc1-c1ccc(S(C)(=O)=O)cc1 [Compound 8] | 5.399 | 6.59 nM | 5.446 | 7.15 nM | – | 92.8% | – | – | – | – | – | – | – | – | – | – | – | – | – | –
CS(=O)(=O)c1ccc(-c2cccc(NCc3ccc(F)cc3)n2)cc1 [Compound 13] | 4.5476 | 8.78 nM | 4.59 | 8.19 nM | – | – | – | – | – | – | – | – | – | – | – | – | 101% | 0.021 | 62% | –
Cc1cc(CNc2cccc(-c3ccc(S(C)(=O)=O)cc3)n2)co1 [Compound 27] | 4.789 | 13.3 nM | 4.853 | 10.9 nM | – | – | – | – | – | – | – | – | – | – | 1.134 | 1.134 | 99.7% | 0.037 | 8.8% | 52000 nM
CS(=O)(=O)c1ccc(-c2cccc(OCc3ccco3)n2)cc1 [Compound 28] | 4.722 | 13.6 nM | 4.78 | 12.6 nM | – | – | – | – | – | – | – | – | – | – | 1.104 | 1.104 | 102.8% | 0.025 | 15% | 52000 nM
COc1cc(NCc2cccs2)cc(-c2ccc(S(C)(=O)=O)cc2)n1 [Compound 32] | 4.433 | 15.5 nM | 4.493 | 14 nM | 0.015 | 100.9% | – | – | – | 5.338 | 2.5 nM | – | – | – | – | – | – | – | – | –
CS(=O)(=O)c1ccc(-c2cccc(/C=C\c3cccs3)n2)cc1 [Compound 41] | 3.735 | 19 nM | 3.716 | 21.7 nM | – | – | – | 49600 nM | – | – | – | – | – | – | 0.234 | 0.2543 | 100% | 0.021 | – | 52000 nM
CS(=O)(=O)c1ccc(-c2cccc(NCc3cccs3)n2)cn1 [Compound 59] | 5.112 | 32 nM | 5.062 | 42.6 nM | – | – | – | – | – | – | – | 1.754 | 1.754 | – | – | – | – | – | 28% | 52000 nM
CS(=O)(=O)c1ccc(-c2nc(NCc3ccco3)ccc2F)cc1 [Compound 218] | 3.092 | 1610 nM | 3.132 | 1720 nM | – | – | – | – | – | – | – | – | – | – | – | – | – | – | 15% | –
CSc1ccc(-c2cncc(OCc3cccs3)n2)cc1 [Compound 253] | 1.5751 | 3760 nM | 1.45 | 4840 nM | – | – | – | – | – | – | – | – | 0.8637 | 19300 nM | – | – | – | – | – | –

Further molecules by falling IC50 [1, 8], results first:

COX2 2 minutes pge2/pge2d4 area ratio Avg. LLE [1, 7] | IC50 [1, 8] | COX2 2 minutes pge2 area (counts) Avg. LLE [1, 9] | IC50 [1, 10] | fraction unbound [2] | Mouse Plasma Protein Stability % Remaining Avg [3] | IC50 (ovine COX-1 (oCOX-1); [12]) | IC50 (ovine COX-1 (oCOX-1); [14]) | solubility (PBS Solubility (no DMSO)) | COX2 10 minutes pge2 area (counts) Avg. LLE [1, 15] | IC50 [1, 16] | COX1 10 minutes pge2/pge2d4 area ratio Avg. LLE (ovine COX-1 (oCOX-1); [17]) | COX1 10 minutes pge2 area (counts) Avg. LLE (ovine COX-1 (oCOX-1); [18]) | IC50 (ovine COX-1 (oCOX-1); [19]) | Compound | COX1 10 minutes pge2/pge2d4 area ratio Avg. LLE (ovine COX-1 (oCOX-1); [11]) | COX1 10 minutes pge2 area (counts) Avg. LLE (ovine COX-1 (oCOX-1); [13]) | Rat Plasma Protein Stability % Remaining Avg [4] | fraction unbound [5] | Human Microsome Stability % Remaining Avg [6] | IC50 (ovine COX-1 (oCOX-1))
5.405 | 152 nM | 5.443 | 141 nM | – | – | – | – | – | – | – | – | 2.83 | 50200 nM | C[S+]([O-])c1ccc(-c2cncc(NCc3cccs3)n2)cc1 (stereo not drawn) [Compound 129] | – | – | – | – | – | –
4.286 | 77.9 nM | 4.248 | 86.9 nM | – | – | 45900 nM | – | – | – | – | 1.498 | – | – | CS(=O)(=O)c1ccc(-c2cccc(NCc3cncs3)n2)cc1 [Compound 99] | – | – | – | – | – | –
4.786 | 71 nM | 4.818 | 69.9 nM | – | – | 10200 nM | – | – | – | – | 2.552 | 2.532 | 10700 nM | CS(=O)(=O)c1ccc(-c2cnc3cnn(Cc4cccs4)c3n2)cc1 [Compound 94] | – | – | – | – | – | –
5.017 | 69 nM | 5.139 | 55.8 nM | – | – | – | – | – | 5.9924 | 6.85 nM | – | 2.104 | – | CS(=O)(=O)c1ccc(-c2cncc(NCc3ccccc3)n2)cc1 [Compound 93] | – | – | – | – | – | –
5.445 | 8.44 nM | 5.417 | 9.78 nM | – | – | 38500 nM | 37700 nM | 7.4 µM (≈ 2.56 µg/mL) | – | – | – | – | – | CS(=O)(=O)c1ccc(-c2cncc(SCc3ccoc3)n2)cc1 [Compound 12] | 1.784 | 1.801 | 95% | 0.006 | – | –
